Among the test systems are SF-295 CNS; SR leukemia; HCT-15 colon; OVCAR-3 ovarian; CCRF-CEM leukemia; NCI-H226 lung; SW-620 colon; A498 renal; T-47D breast; 786-0 renal.
Holding throughout (test): NCI tumour cell line growth inhibition, 48 h

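In this assay, cells in 96-well plates receive the compound at five concentrations for 48 hours. Endpoints are linearly interpolated between the surrounding concentrations. TGI: concentration producing complete growth inhibition.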

The values that follow come from PubChem BioAssay (NCI).

Turning to `O=c1[nH]nc(Cc2ccc([N+](=O)[O-])cc2)[nH]1`, the TGI with SF-295 CNS, with SR leukemia, in the experiment on HCT-15 colon, in the experiment on OVCAR-3 ovarian, with CCRF-CEM leukemia and in the experiment on NCI-H226 lung was greater than 100 µM in each case. Besides, the TGI in the experiment on SW-620 colon, in the experiment with A498 renal, in the experiment with T-47D breast and with 786-0 renal was greater than 100 µM throughout.
For the molecule `Cc1ccc2c3ccc4c(c3n(C)c2c1)C(=O)C=CC4=O`, the TGI in the experiment on SF-295 CNS was greater than 10 µM; in the experiment with SR leukemia, 4.73 µM; with HCT-15 colon it was greater than 10 µM; in the experiment on OVCAR-3 ovarian, 8.6 µM; in the experiment on CCRF-CEM leukemia, 0.844 µM; in the experiment with NCI-H226 lung it was greater than 10 µM. In addition, the TGI in the experiment with SW-620 colon was 4.58 µM; with A498 renal, greater than 10 µM; in the experiment on T-47D breast, 5.92 µM; with 786-0 renal it was 5.63 µM.
Take `Cc1ccc2c(=O)c3c(O)c4c(cc3n(C)c2c1)OC(C)(C)C=C4`: the TGI in the experiment with SF-295 CNS, with SR leukemia, with HCT-15 colon, in the experiment on OVCAR-3 ovarian, in the experiment with CCRF-CEM leukemia and in the experiment on NCI-H226 lung was greater than 10 µM in each case. In addition, the TGI in the experiment on SW-620 colon, in the experiment with A498 renal, with T-47D breast and in the experiment with 786-0 renal was greater than 10 µM in each case.
Regarding `Cc1cccc(/C=N/NC(=S)NC(C)(C)C)n1`, the TGI in the experiment on SF-295 CNS, with SR leukemia, in the experiment on HCT-15 colon, in the experiment on OVCAR-3 ovarian, in the experiment with CCRF-CEM leukemia and with NCI-H226 lung was greater than 100 µM in each case. In addition, the TGI in the experiment with SW-620 colon, with A498 renal, with T-47D breast and in the experiment with 786-0 renal was greater than 100 µM throughout.
As for `Cn1cnc([N+](=O)[O-])c1Sc1nncc2[nH]cnc12`, the TGI with SF-295 CNS, in the experiment with SR leukemia, in the experiment with HCT-15 colon, in the experiment on OVCAR-3 ovarian, in the experiment with CCRF-CEM leukemia and in the experiment on NCI-H226 lung was greater than 100 µM each time. The TGI in the experiment on SW-620 colon, in the experiment with A498 renal, in the experiment with T-47D breast and in the experiment with 786-0 renal was greater than 100 µM throughout.
With `CCOC(=O)c1c(C)n(CCN2CCN(C)CC2)c2ccc(OC)cc12`, the TGI is greater than 100 µM in the experiment on SF-295 CNS; 46.3 µM in the experiment on SR leukemia; 95.8 µM with HCT-15 colon; greater than 100 µM in the experiment with OVCAR-3 ovarian; 71.4 µM in the experiment on CCRF-CEM leukemia; 72 µM in the experiment on NCI-H226 lung. For the same molecule, the TGI in the experiment with SW-620 colon was greater than 100 µM; in the experiment on A498 renal, 73.8 µM; with T-47D breast it was greater than 100 µM; in the experiment on 786-0 renal it was greater than 100 µM.
On to `CCOC(=O)C1C2C1C1C(C(=O)OCC)C21` (stereo not given), for which the TGI in the experiment with SF-295 CNS, in the experiment with SR leukemia, in the experiment with HCT-15 colon, in the experiment on OVCAR-3 ovarian, in the experiment on CCRF-CEM leukemia and with NCI-H226 lung was greater than 100 µM in each case. Moreover, the TGI in the experiment with SW-620 colon, in the experiment on A498 renal, in the experiment with T-47D breast and in the experiment on 786-0 renal was greater than 100 µM in each case.
With `Cc1nc2ccccc2n1CCc1nc2ccccc2[nH]1`, the TGI with SF-295 CNS, in the experiment on SR leukemia, in the experiment with HCT-15 colon, in the experiment on OVCAR-3 ovarian, with CCRF-CEM leukemia and in the experiment on NCI-H226 lung was greater than 100 µM throughout. Also, the TGI with SW-620 colon, with A498 renal, in the experiment on T-47D breast and in the experiment with 786-0 renal was greater than 100 µM throughout.
With `CCCS(=O)OC1C(C2COC(C)(C)O2)OC2OC(C)(C)OC21` (stereo not given), the TGI amounted to 36.1 µM with SF-295 CNS; 4.34 µM in the experiment on SR leukemia; 41.6 µM with HCT-15 colon; 29.3 µM in the experiment on OVCAR-3 ovarian; 21.5 µM with CCRF-CEM leukemia; 46.2 µM in the experiment on NCI-H226 lung. For the same molecule, the TGI is 32.8 µM in the experiment on SW-620 colon, 97 µM in the experiment with A498 renal, greater than 69.6 µM in the experiment on T-47D breast and 27.8 µM in the experiment on 786-0 renal.
As to `Cc1nc(-c2ccc(Cl)cc2)cn2c1nc1ccccc12`, the TGI is greater than 100 µM with SF-295 CNS; greater than 100 µM with SR leukemia; greater than 100 µM with HCT-15 colon; greater than 100 µM with OVCAR-3 ovarian; greater than 31.6 µM in the experiment on CCRF-CEM leukemia; greater than 100 µM in the experiment with NCI-H226 lung. The TGI with SW-620 colon is greater than 100 µM; in the experiment on A498 renal it was greater than 100 µM; in the experiment on T-47D breast it was greater than 21.4 µM; in the experiment on 786-0 renal, greater than 100 µM.
On to `CCCCN=C(OC1C=CCCC1)SC` (stereo not given), for which the TGI with SF-295 CNS, in the experiment with SR leukemia, with HCT-15 colon, with OVCAR-3 ovarian, in the experiment on CCRF-CEM leukemia and with NCI-H226 lung was greater than 100 µM throughout. Besides, the TGI with SW-620 colon, with A498 renal, in the experiment on T-47D breast and with 786-0 renal was greater than 100 µM in each case.
